This note sets out measurements from ChEMBL document CHEMBL1151586, “Design and synthesis of 10-oxo derivative of N-cyclopropylmethyl ()-6-acetylthiodihydro-normorphine, a potentially -selective opioid receptor ligand” (Bioorg Med Chem Lett, 1995).

The structures appear in SMILES notation.

For test [1], the species on record is Cavia porcellus. As to the kind of experiment: Inhibition of the twitch response of the guinea pig ileal strip to electrical stimulation. Format: functional. The conditions noted are these: read-out: pA2 (converted).
The species named for test [2] is Cavia porcellus. Description: Inhibition of the twitch response of the guinea pig longitudinal muscle strip to electrical stimulation in a concentration-dependent manner. Format: functional, Muscle tissue.

`CC(=O)Oc1ccc2c3c1O[C@H]1[C@H](SC(C)=O)CCC4[C@@H](C2=O)N(CC2CC2)CC[C@@]341` (some centres undefined): the Kb in the test listed under Cavia porcellus [1] was 0.0355 nM. In the test filed under Cavia porcellus [2], this molecule displayed a pD2 of 9.03 M.
Take `CC(=O)Oc1ccc2c3c1O[C@H]1[C@H](SC(C)=O)C=CC4[C@@H](C2)N(CC2CC2)CC[C@@]341` (some centres undefined): the pD2 in the test filed under Cavia porcellus [2] came to 8.4 M.
On the same count and under the same terms, then `CN1CC[C@]23c4c5ccc(O)c4O[C@H]2[C@@H](O)C=C[C@H]3[C@H]1C5` [MORPHINE], with 7.23 M.
